From PMC12207590, “Substrate Specificity of the Organic Cation Transporters MATE1 and MATE2K and Functional Overlap with OCT1 and OCT2” (Journal of Medicinal Chemistry, 2025)
Where two headings read alike, the source gives them in different places.

Legend:
MATE1 = molecular target: T1, MATE1 (Homo sapiens, UniProt Q96FL8); assay: Uptake ratio in MATE1-overexpressing HEK293 cells vs empty vector (2.5 μM, 1 min, HPLC-MS/MS); assay type: cell-based; details: for MATE1 ratio in this study: Table S1
T1 sequence (Q96FL8 1-570): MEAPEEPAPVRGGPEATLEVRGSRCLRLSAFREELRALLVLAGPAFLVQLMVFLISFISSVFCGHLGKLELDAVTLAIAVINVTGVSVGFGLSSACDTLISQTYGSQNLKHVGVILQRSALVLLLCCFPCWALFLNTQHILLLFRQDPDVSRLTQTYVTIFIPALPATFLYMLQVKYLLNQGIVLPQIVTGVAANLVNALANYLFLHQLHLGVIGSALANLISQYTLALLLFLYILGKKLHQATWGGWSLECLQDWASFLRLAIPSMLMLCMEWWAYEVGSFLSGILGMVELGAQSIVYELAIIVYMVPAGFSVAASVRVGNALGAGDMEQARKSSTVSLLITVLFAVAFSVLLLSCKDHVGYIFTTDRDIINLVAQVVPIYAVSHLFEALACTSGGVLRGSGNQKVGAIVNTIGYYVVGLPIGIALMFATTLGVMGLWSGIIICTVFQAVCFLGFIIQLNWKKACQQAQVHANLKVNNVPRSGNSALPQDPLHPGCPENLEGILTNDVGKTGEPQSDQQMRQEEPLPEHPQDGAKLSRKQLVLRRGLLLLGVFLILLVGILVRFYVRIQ

MATE2K = MATE2K (Homo sapiens, UniProt Q86VL8); assay: Uptake ratio in MATE2K-overexpressing HEK293 cells vs empty vector (2.5 μM, 1 min, HPLC-MS/MS); assay type: cell-based; details: for MATE2K ratio in this study: Table S1
[1] = fold uptake over empty vector, 2.5 μM, 1 min
[2] = uptake ratio MATE1-overexpressing vs empty-vector HEK293 cells, 2.5 μM, 1 min, mean
[3] = uptake ratio MATE2K-overexpressing vs empty-vector HEK293 cells, 2.5 μM, 1 min, mean
[4] = fold uptake over empty vector, 2.5 μM, 1 min, listed as reproterol

Sequence of MATE2K (Q86VL8 1-566 isoform Q86VL8-3): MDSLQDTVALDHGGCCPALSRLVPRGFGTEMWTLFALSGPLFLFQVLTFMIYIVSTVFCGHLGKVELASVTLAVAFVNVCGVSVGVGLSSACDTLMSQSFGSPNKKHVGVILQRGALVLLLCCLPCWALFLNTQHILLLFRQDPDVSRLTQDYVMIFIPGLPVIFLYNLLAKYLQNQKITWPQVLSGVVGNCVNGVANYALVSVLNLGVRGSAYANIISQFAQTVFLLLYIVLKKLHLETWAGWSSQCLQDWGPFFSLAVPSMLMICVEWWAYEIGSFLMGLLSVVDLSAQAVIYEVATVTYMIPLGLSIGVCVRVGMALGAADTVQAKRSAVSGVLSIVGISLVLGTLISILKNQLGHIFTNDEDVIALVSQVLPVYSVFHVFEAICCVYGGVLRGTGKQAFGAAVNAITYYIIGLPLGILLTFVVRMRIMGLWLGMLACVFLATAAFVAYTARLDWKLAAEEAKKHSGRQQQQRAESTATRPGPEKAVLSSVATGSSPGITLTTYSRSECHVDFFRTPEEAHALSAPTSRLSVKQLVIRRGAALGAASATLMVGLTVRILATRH

COc1ccc2[nH]c3c(c2c1)CCNC3 [Pinoline]
MATE1 ratio (MATE1): 1.28
MATE2K ratio (MATE2K): 1.21

C1CNCCN1 [Piperazine]
MATE1 ratio (MATE1; [1]): 0.92
MATE2K ratio (MATE2K; [1]): 1.03

CN1CCN(CC(=O)N2c3ccccc3C(=O)Nc3cccnc32)CC1 [Pirenzepine]
MATE1 ratio (MATE1; [1]): 2.80
MATE2K ratio (MATE2K; [1]): 1.36

Nc1cccc2c1C(=O)N(C1CCC(=O)NC1=O)C2=O (centres unmarked) [Pomalidomide]
MATE1 ratio (MATE1; [1]): 1.08
MATE2K ratio (MATE2K; [1]): 0.89

CC(=O)Nc1ccc(OCC(O)CNC(C)C)cc1 (centres unmarked) [Practolol]
MATE1 ratio (MATE1; [1]): 21.52
MATE2K ratio (MATE2K; [1]): 8.46

CC(C)NC[C@H](O)COc1ccc(O)cc1 [Prenalterol]
MATE1 ratio (MATE1; [1]): 5.01
MATE2K ratio (MATE2K; [1]): 1.62

OC(CCN1CCCCC1)(c1ccccc1)c1ccccc1 [Pridinol]
MATE1 ratio (MATE1; [1]): 1.18
MATE2K ratio (MATE2K; [1]): 1.27

CC(C)NC(=N)NC(=N)Nc1ccc(Cl)cc1 [Proguanil]
MATE1 ratio in this study (MATE1; 2.5 μM, 1 min): 5.54
MATE1 ratio (MATE1; [1]): 5.54
MATE2K ratio in this study (MATE2K; 2.5 μM, 1 min): 3.98
MATE2K ratio (MATE2K; [1]): 3.98

CC(C)[N+](C)(CCOC(=O)C1c2ccccc2Oc2ccccc21)C(C)C [Propantheline]
MATE1 ratio (MATE1; [1]): 10.16
MATE1 (MATE1; [2]): 10.16
MATE2K ratio (MATE2K; [1]): 5.77
MATE2 (MATE2K; [3]): 5.77

CC(C)c1cccc(C(C)C)c1O [Propofol]
MATE1 (MATE1): 0.64
MATE1 ratio (MATE1): 0.64
MATE2 (MATE2K): 0.8
MATE2K ratio (MATE2K): 0.80

CC(C)NCC(O)COc1cccc2ccccc12 [Propranolol (R), Propranolol]
MATE1 (MATE1; [2]): 1.16
MATE2 (MATE2K; [3]): 1.04

CC(C)NCC(O)COc1cccc2ccccc12 [Propranolol (S), Propranolol]
MATE1 (MATE1; [2]): 1.13
MATE2 (MATE2K; [3]): 0.96

CCCCC[C@H](O)/C=C/[C@H]1[C@H](O)CC(=O)[C@@H]1C/C=C\CCCC(=O)O [Prostaglandin E2]
MATE1 (MATE1): 1.35
MATE1 ratio (MATE1): 1.35
MATE2 (MATE2K): 1.21
MATE2K ratio (MATE2K): 1.21

CCCCC[C@H](O)/C=C/[C@@H]1[C@@H](C/C=C\CCCC(=O)O)[C@@H](O)C[C@H]1O [Prostaglandin F2alpha]
MATE1 ratio (MATE1; [1]): 1.41
MATE1 (MATE1; [2]): 1.41
MATE2K ratio (MATE2K; [1]): 0.92
MATE2 (MATE2K; [3]): 0.92

NCCCCN [Putrescine]
MATE1 ratio (MATE1; [1]): 0.36
MATE1 (MATE1; [2]): 0.36
MATE2K ratio (MATE2K; [1]): 0.48
MATE2 (MATE2K; [3]): 0.48

Cc1ncc(CO)c(C=O)c1O [Pyridoxal]
MATE1 ratio (MATE1; [1]): 0.97
MATE1 (MATE1; [2]): 0.97
MATE2K ratio (MATE2K; [1]): 1.14
MATE2 (MATE2K; [3]): 1.14

CCc1nc(N)nc(N)c1-c1ccc(Cl)cc1 [Pyrimethamine]
MATE1 ratio (MATE1; [1]): 1.17
MATE1 (MATE1; [2]): 1.17
MATE2K ratio (MATE2K; [1]): 1.10
MATE2 (MATE2K; [3]): 1.1

Br.Cc1ncc(C[n+]2cccc(CCO)c2C)c(N)n1.[Br-] [Pyrithiamine]
MATE1 ratio (MATE1; [1]): 20.40
MATE1 (MATE1; [2]): 20.4
MATE2K ratio (MATE2K; [1]): 7.32
MATE2 (MATE2K; [3]): 7.32

CC(CCc1ccc(O)cc1)NCC(O)c1ccc(O)cc1 (centres unmarked) [Ractopamine]
MATE1 (MATE1): 4.56
MATE1 ratio (MATE1): 4.56
MATE2 (MATE2K): 1.4
MATE2K ratio (MATE2K): 1.40

O=C(c1ccc(OCCN2CCCCC2)cc1)c1c(-c2ccc(O)cc2)sc2cc(O)ccc12 [Raloxifene]
MATE1 ratio (MATE1; [1]): 1.12
MATE1 (MATE1; [2]): 1.12
MATE2K ratio (MATE2K; [1]): 1.12
MATE2 (MATE2K; [3]): 1.12

COc1ccccc1OCC(O)CN1CCN(CC(=O)Nc2c(C)cccc2C)CC1 (centres unmarked) [Ranolazine]
MATE1 ratio (MATE1; [1]): 1.11
MATE1 (MATE1; [2]): 1.11
MATE2K ratio (MATE2K; [1]): 1.30
MATE2 (MATE2K; [3]): 1.3

C#CCN[C@@H]1CCc2ccccc21 [Rasagiline (S), Rasagiline]
MATE1 ratio (MATE1; [1]): 1.46
MATE1 (MATE1; [2]): 1.46
MATE2K ratio (MATE2K; [1]): 1.46
MATE2 (MATE2K; [3]): 1.46

CCN1CCC[C@H]1CNC(=O)c1c(OC)ccc(Br)c1OC [Remoxipride]
MATE1 ratio (MATE1; [1]): 1.19
MATE1 (MATE1; [2]): 1.19
MATE2K ratio (MATE2K; [1]): 1.21
MATE2 (MATE2K; [3]): 1.21

Cn1c(=O)c2c(ncn2CCCNCC(O)c2cc(O)cc(O)c2)n(C)c1=O (centres unmarked) [Reproterol]
MATE1 ratio (MATE1; [1]): 5.18
MATE1 ratio (MATE1; [4]): 5.2
MATE1 (MATE1; [2]): 5.18
MATE2K ratio (MATE2K; [1]): 17.96
MATE2K ratio (MATE2K; [4]): 17.9
MATE2 (MATE2K; [3]): 17.96

COC(=O)[C@H]1[C@H]2C[C@@H]3c4[nH]c5cc(OC)ccc5c4CCN3C[C@H]2C[C@@H](OC(=O)c2cc(OC)c(OC)c(OC)c2)[C@@H]1OC [Reserpine]
MATE1 ratio (MATE1; [1]): 1.61
MATE1 (MATE1; [2]): 1.61
MATE2K ratio (MATE2K; [1]): 1.08
MATE2 (MATE2K; [3]): 1.08

CN(CCN1CCC(OC(=O)Nc2ccccc2-c2ccccc2)CC1)C(=O)c1ccc(CN2CCC(C(N)=O)CC2)cc1 [Revefenacin]
MATE1 ratio (MATE1; [1]): 1.39
MATE1 (MATE1; [2]): 1.39
MATE2K ratio (MATE2K; [1]): 1.17
MATE2 (MATE2K; [3]): 1.17

CO[C@H]1/C=C/O[C@@]2(C)Oc3c(C)c(O)c4c(O)c(c(/C=N/N5CCN(C)CC5)c(O)c4c3C2=O)NC(=O)/C(C)=C\C=C\[C@H](C)[C@H](O)[C@@H](C)[C@@H](O)[C@@H](C)[C@H](OC(C)=O)[C@@H]1C [Rifampicin]
MATE1 ratio (MATE1; [1]): 1.02
MATE1 (MATE1; [2]): 1.02
MATE2K ratio (MATE2K; [1]): 0.93
MATE2 (MATE2K; [3]): 0.93

CN(C)CCc1c[nH]c2ccc(Cn3cncn3)cc12 [Rizatriptan]
MATE1 ratio (MATE1; [1]): 6.63
MATE1 (MATE1; [2]): 6.63
MATE2K ratio (MATE2K; [1]): 3.35
MATE2 (MATE2K; [3]): 3.35

CNCc1ccc(-c2[nH]c3cc(F)cc4c3c2CCNC4=O)cc1 [Rucaparib]
MATE1 ratio (MATE1; [1]): 3.71
MATE1 (MATE1; [2]): 3.71
MATE2K ratio (MATE2K; [1]): 2.03
MATE2 (MATE2K; [3]): 2.03

N#CC[C@H](C1CCCC1)n1cc(-c2ncnc3[nH]ccc23)cn1 [Ruxolitinib]
MATE1 ratio (MATE1; [1]): 1.13
MATE1 (MATE1; [2]): 1.13
MATE2K ratio (MATE2K; [1]): 0.99
MATE2 (MATE2K; [3]): 0.99

CC(C)(C)NCC(O)c1ccc(O)c(CO)c1 [Salbutamol (R), Salbutamol]
MATE1 ratio in this study (MATE1; 2.5 μM, 1 min): 6.98
MATE1 ratio (MATE1; [1]): 6.98
MATE1 (MATE1; [2]): 6.98
MATE2K ratio in this study (MATE2K; 2.5 μM, 1 min): 3.74
MATE2K ratio (MATE2K; [1]): 3.74
MATE2 (MATE2K; [3]): 3.74

CC(C)(C)NCC(O)c1ccc(O)c(CO)c1 [Salbutamol (S), Salbutamol]
MATE1 ratio in this study (MATE1; 2.5 μM, 1 min): 8.88
MATE1 ratio (MATE1; [1]): 8.88
MATE1 (MATE1; [2]): 8.88
MATE2K ratio in this study (MATE2K; 2.5 μM, 1 min): 5.09
MATE2K ratio (MATE2K; [1]): 5.09
MATE2 (MATE2K; [3]): 5.09

CC(C)(C)NCC(O)c1ccc(O)c(CO)c1 (centres unmarked) [Salbutamol]
MATE1 ratio in this study (MATE1; 2.5 μM, 1 min): 7.94
MATE1 ratio (MATE1; [1]): 7.94
MATE1 (MATE1; [2]): 7.94
MATE2K ratio in this study (MATE2K; 2.5 μM, 1 min): 3.73
MATE2K ratio (MATE2K; [1]): 3.73
MATE2 (MATE2K; [3]): 3.73

OCc1cc(C(O)CNCCCCCCOCCCCc2ccccc2)ccc1O (centres unmarked) [Salmeterol]
MATE1 ratio (MATE1; [1]): 1.78
MATE1 (MATE1; [2]): 1.78
MATE2K ratio (MATE2K; [1]): 1.17
MATE2 (MATE2K; [3]): 1.17

COc1cc2c(cc1OC)[C@H](C)NCC2 [Salsolidine]
MATE1 (MATE1): 1.24
MATE1 ratio (MATE1): 1.24
MATE2 (MATE2K): 1.46
MATE2K ratio (MATE2K): 1.46

CNCC(=O)O [Sarcosine]
MATE1 ratio (MATE1; [1]): 0.76
MATE1 (MATE1; [2]): 0.76
MATE2K ratio (MATE2K; [1]): 1.01
MATE2 (MATE2K; [3]): 1.01
